Structures are written as SMILES. Read-outs that look alike come from different tables or passages of the source.

From patent US4771050A, “Thiolactam-n-acetic acid derivatives” (Takeda Chemical Industries, Ltd., priority 1986, dated 1988) come the findings set out here.

For assay [1], the target named is T1, aldose reductase from human placenta (Homo sapiens, UniProt P15121).
T1 construct: Partially purified aldose reductase from human placenta; from tissue; host or cells: human placenta
Kind of assay: Aldose reductase inhibition (in vitro study). The assay is classed as biochemical. The following applies: for inhibition at 1 µM: 10^-6 M; for inhibition at 0.1 µM: 10^-7 M. The source says: 1. Aldose reductase inhibition (in vitro study)
Partially purified aldose reductase from human placenta was used for the test of aldose reductase inhibitory effect according to the method of S. Hayman et al. described in Journal of Biological Chemistry, 240, 877 (1965) or the method of J. H. Kinoshita et al. described in Metabolism, 28, Supplement 1, 462 (1979).

For assay [2], the system named is sorbitol accumulation in sciatic nerves of streptozocin diabetic rats. Kind of assay: Inhibition of sorbitol accumulation in the tissue of experimentally induced diabetic rat. The assay is classed as in vivo, rat (Spraque-Dawley). The note with it: for sorbitol accumulation: sciatic nerve, untreated control group = 100; for inhibition of sorbitol accumulation in vivo compared with control compounds (in words): vs control compounds A, B, C. Here is the method:
Spraque-Dawley rats (male, 5-7-week-old, 5 animals per group) were fasted for 18 hours, and received injection of 70 mg/kg of streptozocin (Cal Biochem Co.) into the caudal vein under anesthesia with ether, so that diabetic rats were obtained. From immediately after the injection of streptozocin these rats were given orally the test compound of 50 mg/kg or 30 mg/kg in the form of 5% gum arabic suspension twice a day (at 10 a.m. and 5 p.m.) for 2 days. During this period the rats were allowed to take CE-2 diet (Clea Japan, Inc.) and water ad libitum. In the morning on the 3rd day (9 a.m.) the rats were killed (decapitation and venesection), and immediately the sciatic nerves were isolated, from which sorbitol was extracted according to the method of M. J. Peterson et al. described in Metabolism, 28, 456 (1979) and the sorbitol level was determined by the enzymatic method of P.S. Clements et al. in Science, 166, 1007 (1969).

In another assay the test system is washed rat platelets. Kind of assay: Inhibitory action on platelet aggregation (washed rat platelets). It is filed as cell-based, rat (Spraque-Dawley). The following applies: Rattus norvegicus, Platelet, Mean ± SD (N = 3); for inhibition at 100 µM: 10^-4 M. Here is the method:
3. Inhibitory action on platelet aggregation
Effect of 3,4-dihydro-2,8-diisopropyl-3-thioxo-2H-1,4-benzoxazine-4-acetic acid on platelet aggregation was examined using washed rat platelets.
Platelet rich plasma (PRP) was prepared by centrifuging the blood at 150 xg for 15 min at room temperature. To prepare washed platelets, the PRP was centrifuged at 1500 xg for 10 min and the precipitated platelets were resuspended in Tyrode's solution. The number of platelets used was 7×10^5 cells/mm^3. Platelet aggregation was measured by the turbidmetric method using an aggregometer (Nikko Bioscience, Model PAR-4M, Tokyo). The test compound dissolved in 10 μl of water was added to 250 μl of washed platelet suspension and incubated at 37° C. for 3 min before 10 μl of aggregating agents ([…] of collagen, Nikko Bioscience or 10 μM of ADP, Shigma, St. Louis, Mo., at the final concentration) was added.

[3] abbreviates: 30 mg/kg orally twice a day for 2 days.
[4] abbreviates: 50 mg/kg orally twice a day for 2 days.

In the case of `O=C(O)CN1C(=S)COc2ccc(F)cc21` [Control A, 6fluoro-3,4-dihydro-3-thioxo-2H--1,4benzoxazine-4-acetic acid, reference compound], the inhibition at 1 µM in assay [1] amounted to 50.8%. Further, the inhibition at 0.1 µM in assay [1] was 25%. Also, the figures for the sorbitol accumulation in assay [2] (setting [3]) and in assay [2] (setting [4]) were 73% and 60%, respectively.

Regarding `O=C(O)CN1C(=S)CSc2ccccc21` [Control B, 3,4dihydro-3-thioxo-2H--1,4benzothiazine-4-acetic acid, reference compound], in assay [1], the inhibition at 1 µM was 43.1% and the inhibition at 0.1 µM was found to be 15.7%. In assay [2] (setting [4]), this compound gave a sorbitol accumulation of 78%.

For the compound `CC1Sc2ccccc2N(CC(=O)O)C1=S` (centres unmarked) [Control C, 3,4dihydro-2-methyl-3-thioxo-2H--1,4benzothiazine-4-acetic acid, reference compound], in assay [1], the inhibition at 1 µM came to 48.7% and the inhibition at 0.1 µM stood at 19.6%. Moreover, in assay [2] (setting [4]), the sorbitol accumulation worked out at 71%.

In the case of `CC(C)C1Oc2ccccc2N(CC(=O)O)C1=S` (centres unmarked) [Example 1, 3,4-dihydro-2-isopropyl-3-thioxo-2H-1,4-benzoxazine-4-acetic acid], in assay [1], the inhibition at 1 µM was determined as 46.7% and the inhibition at 0.1 µM came to 19.1%. This compound returned a sorbitol accumulation in assay [2] (setting [3]) of 51%. In assay [2] (setting [4]), the sorbitol accumulation is given as 18%.

For `CC(C)C1Oc2ccc(F)cc2N(CC(=O)O)C1=S` (centres unmarked) [Example 2, 6-fluoro-3,4-dihydro-2-isopropyl-3-thioxo-2H-1,4-benzoxazine-4-acetic acid], in assay [1], the inhibition at 1 µM is 43.9% and the inhibition at 0.1 µM was 8.7%. Also, the sorbitol accumulation in assay [2] (setting [3]) was found to be 33%. Moreover, the sorbitol accumulation in assay [2] (setting [4]) is listed as 12%. Further, in assay [2], the “inhibition of sorbitol accumulation in vivo compared with control compounds (in words)” value is reported as “The difference is particularly evident”.

Consider `CC(C)C1Oc2c(Cl)cccc2N(CC(=O)O)C1=S` (centres unmarked) [Example 3, 8-chloro-3,4-dihydro-2-isopropyl-3-thioxo-2H-1,4-benzoxazine-4-acetic acid], for which, in assay [1], the inhibition at 1 µM is 48.9% and the inhibition at 0.1 µM worked out at 8.9%. In assay [2] (setting [4]), this compound showed a sorbitol accumulation of 23%.

For the compound `CC(C)C1Oc2c(F)cccc2N(CC(=O)O)C1=S` (centres unmarked) [Example 4, 8-fluoro-3,4-dihydro-2-isopropyl-3-thioxo-2H-1,4-benzoxazine-4-acetic acid], the inhibition at 1 µM in assay [1] turned out to be 45.6%. In addition, in assay [1], the inhibition at 0.1 µM came out at 3.8%. The values for the sorbitol accumulation in assay [2] (setting [3]) and in assay [2] (setting [4]) were 45% and 14%, respectively.

`COc1cccc2c1OC(C(C)C)C(=S)N2CC(=O)O` (centres unmarked) [Example 5, 3,4-dihydro-2-isopropyl-8-methoxy-3-thioxo-2H-1,4-benzoxazine-4-acetic acid]: the inhibition at 1 µM in assay [1] was 48.1%. In addition, the inhibition at 0.1 µM in assay [1] came to 17.3%. In addition, the sorbitol accumulation in assay [2] (setting [3]) was 29%; in assay [2] (setting [4]), 11%.

Regarding `Cc1cccc2c1OC(C(C)C)C(=S)N2CC(=O)O` (centres unmarked) [Example 6, 3,4-dihydro-2-isopropyl-8-methyl-3-thioxo2H-1,4-benzoxazine-4-acetic acid], in assay [1], the inhibition at 1 µM came to 48.2% and the inhibition at 0.1 µM came out at 9.4%. Further, the sorbitol accumulation in assay [2] (setting [3]) is 33%. Moreover, the sorbitol accumulation in assay [2] (setting [4]) came out at 16%.

Regarding `COc1ccc2c(c1)OC(C(C)C)C(=S)N2CC(=O)O` (centres unmarked) [Example 7, 3,4-dihydro-2-isopropyl-7-methoxy-3-thioxo-2H-1,4-benzoxazine-4-acetic acid], in assay [1], the inhibition at 1 µM amounted to 50% and the inhibition at 0.1 µM is 14.9%. In assay [2] (setting [3]), this compound displayed a sorbitol accumulation of 27%.

Consider `CC(C)C1Sc2ccccc2N(CC(=O)O)C1=S` (centres unmarked) [Example 9, 3,4-dihydro-2-isopropyl-3-thioxo-2H-1,4-benzothiazine-4-acetic acid], for which, in assay [1], the inhibition at 1 µM was 46.4% and the inhibition at 0.1 µM was found to be 20%. Besides, the sorbitol accumulation in assay [2] (setting [3]) is given as 60%. This compound also showed a sorbitol accumulation in assay [2] (setting [4]) of 46%. The “inhibition of sorbitol accumulation in vivo compared with control compounds (in words)” value in assay [2] was “The difference is particularly evident”.

In the case of `CCC(C)C1Sc2ccccc2N(CC(=O)O)C1=S` (centres unmarked) [Example 11, 3,4-dihydro-2-(1-methylpropyl)-3-thioxo-2H-1,4-benzothiazine-4-acetic acid], in assay [1], the inhibition at 1 µM came to 47.1% and the inhibition at 0.1 µM came out at 15.2%. This compound also had a sorbitol accumulation in assay [2] (setting [3]) of 67%. The compound also yielded a sorbitol accumulation in assay [2] (setting [4]) of 38%. Further, the “inhibition of sorbitol accumulation in vivo compared with control compounds (in words)” value in assay [2] is “The difference is particularly evident”.

As for `CCOc1cccc2c1OC(C(C)C)C(=S)N2CC(=O)O` (centres unmarked) [Example 12, 8-ethoxy-3,4-dihydro-2isopropyl3-thioxo-2H-1,4-benzoxazine-4-acetic acid], in assay [1], the inhibition at 1 µM worked out at 43% and the inhibition at 0.1 µM was determined as 19.2%. The compound also showed a sorbitol accumulation in assay [2] (setting [3]) of 58%.

Regarding `CCc1cccc2c1OC(C(C)C)C(=S)N2CC(=O)O` (centres unmarked) [Example 13, 8-ethyl-3,4-dihydro-2-isopropyl-3-thioxo-2H-1,4-benzoxazine-4-acetic acid], in assay [1], the inhibition at 1 µM is 46.8% and the inhibition at 0.1 µM worked out at 14.9%. The compound also showed a sorbitol accumulation in assay [2] (setting [3]) of 35%.

Turning to `CC(C)C1Oc2cc(F)ccc2N(CC(=O)O)C1=S` (centres unmarked) [Example 17, 7-fluoro-3,4-dihydro-2isopropyl3-thioxo-2H-1,4-benzoxazine-4-acetic acid], in assay [1], the inhibition at 1 µM was determined as 45.7% and the inhibition at 0.1 µM is 2.6%. The compound also had a sorbitol accumulation in assay [2] (setting [3]) of 62%.

As for `CC(C)C1Oc2c(cccc2C(C)(C)C)N(CC(=O)O)C1=S` (centres unmarked) [Example 19, 8-t-butyl-3,4-dihydro-2-isopropyl-3-thioxo-2H-1,4-benzoxazine-4-acetic acid], in assay [1], the inhibition at 1 µM was found to be 39.3% and the inhibition at 0.1 µM is 8%. For the same compound, the sorbitol accumulation in assay [2] (setting [3]) worked out at 15%.

For the compound `CC(C)C1Oc2c(C3CCCCC3)cccc2N(CC(=O)O)C1=S` (centres unmarked) [Example 20, 8-cyclohexyl-3,4-dihydro-2-isopropyl-3-thioxo2H-1,4-benzoxazine-4-acetic acid], in assay [1], the inhibition at 1 µM was 38.4% and the inhibition at 0.1 µM came out at 4.6%. For the same compound, the sorbitol accumulation in assay [2] (setting [3]) is 25%.

Turning to `COc1ccc2c(c1)c(CC(=O)O)c(C)n2C(=O)c1ccc(Cl)cc1` [Indomethacin, reference compound], the inhibition at 300 µM in the assay with washed rat platelets (read-out: percent inhibition of aggregation, inducer ADP, 3 × 10^-4 M) was found to be 97.2 ± 6.4%. Further, the inhibition at 100 µM in the assay with washed rat platelets (read-out: percent inhibition of aggregation, inducer ADP) was 102 ± 8.4%; with washed rat platelets (read-out: percent inhibition of aggregation, inducer collagen) it was 28.5 ± 1.9%.
